Measured values from PubChem BioAssay (NCI).
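48-hour exposure; five concentrations; linearly interpolated endpoints. The concentration for full growth arrest is given as TGI.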

Assays:
Assay in all cases: DTP human tumour cell line panel, 48 h
TK-10 renal = tested on: TK-10 renal
UACC-62 melanoma = tested on: UACC-62 melanoma
LOX IMVI melanoma = tested on: LOX IMVI melanoma
M14 melanoma = tested on: M14 melanoma
SF-295 CNS = tested on: SF-295 CNS
MDA-MB-435 = tested on: MDA-MB-435
NCI-H460 lung = tested on: NCI-H460 lung
NCI/ADR-RES ovarian = tested on: NCI/ADR-RES ovarian
HCC-2998 colon = tested on: HCC-2998 colon
SK-OV-3 ovarian = tested on: SK-OV-3 ovarian

In the case of `COC(=O)CCCC(=O)O`, the TGI (TK-10 renal) is reported as over 100 µM, the TGI (UACC-62 melanoma) is reported as over 100 µM and the TGI (LOX IMVI melanoma) is reported as over 100 µM. It also gave a TGI (M14 melanoma) of over 100 µM, a TGI (SF-295 CNS) of over 100 µM and a TGI (MDA-MB-435) of over 100 µM. For the same compound, the TGI (NCI-H460 lung) was over 100 µM and the TGI (NCI/ADR-RES ovarian) was over 100 µM.

`Cc1cc(C)nc(NS(=O)(=O)c2ccc(Nc3c4ccc(Cl)cc4nc4c(C(=O)Nc5ccc(S(N)(=O)=O)cc5)cccc34)cc2)n1` was tested, and the TGI (TK-10 renal) was 89.6 µM, the TGI (UACC-62 melanoma) was 76.6 µM and the TGI (HCC-2998 colon) was 30.9 µM. The TGI (LOX IMVI melanoma) was 34.8 µM, the TGI (SK-OV-3 ovarian) was 30.5 µM and the TGI (M14 melanoma) was 34.7 µM. The TGI (SF-295 CNS) was 36.9 µM and the TGI (NCI-H460 lung) was 60.8 µM.

For `COC(=O)c1c(N)n[nH]c1N`, the TGI (TK-10 renal) was over 100 µM, the TGI (UACC-62 melanoma) was over 100 µM and the TGI (HCC-2998 colon) was over 100 µM. The TGI (LOX IMVI melanoma) was over 100 µM, the TGI (SK-OV-3 ovarian) was over 100 µM and the TGI (M14 melanoma) was over 100 µM. For the same compound, the TGI (SF-295 CNS) was over 100 µM and the TGI (NCI-H460 lung) was over 100 µM.

`O=C1c2ccccc2C(=O)c2c1ccc(C1C(=O)c3ccccc3C1=O)c2-c1c(C2C(=O)c3ccccc3C2=O)ccc2c1C(=O)c1ccccc1C2=O` showed a TGI (TK-10 renal) of over 100 µM, a TGI (UACC-62 melanoma) of over 100 µM and a TGI (LOX IMVI melanoma) of over 100 µM. The TGI (SK-OV-3 ovarian) was over 100 µM, the TGI (M14 melanoma) was over 100 µM and the TGI (SF-295 CNS) was over 100 µM. For the same compound, the TGI (MDA-MB-435) was over 100 µM, the TGI (NCI-H460 lung) was over 100 µM and the TGI (NCI/ADR-RES ovarian) was over 100 µM.

In the case of `CCCCS(=O)(=O)CCC(N)C(=O)O` (stereo not given), the TGI (TK-10 renal) is reported as over 100 µM, the TGI (UACC-62 melanoma) is reported as over 100 µM and the TGI (HCC-2998 colon) is reported as over 100 µM. For the same compound, the TGI (SK-OV-3 ovarian) was over 100 µM, the TGI (M14 melanoma) was over 100 µM and the TGI (SF-295 CNS) was over 100 µM. The TGI (NCI-H460 lung) was over 100 µM and the TGI (NCI/ADR-RES ovarian) was over 100 µM.

`CCC1CN2CCc3c([nH]c4ccccc34)C2C[C@@H]1CC(=O)N(C)C` (stereo not given in full) gave a TGI (TK-10 renal) of over 100 µM, a TGI (HCC-2998 colon) of over 100 µM and a TGI (LOX IMVI melanoma) of over 100 µM. The TGI (SK-OV-3 ovarian) was over 100 µM, the TGI (M14 melanoma) was over 100 µM and the TGI (SF-295 CNS) was over 100 µM. It also gave a TGI (NCI-H460 lung) of over 100 µM.

Work on `CCOC(=O)C1=C(C)N(c2ccc(C)cc2)C2=C(C(=O)N(c3ccccc3)C2c2ccccc2)C1c1ccccc1` (stereo not given) yielded a TGI (TK-10 renal) of over 25 µM, a TGI (UACC-62 melanoma) of over 25 µM and a TGI (HCC-2998 colon) of over 25 µM. The TGI (LOX IMVI melanoma) was over 25 µM, the TGI (M14 melanoma) was over 25 µM and the TGI (SF-295 CNS) was over 25 µM. For the same compound, the TGI (NCI-H460 lung) was over 25 µM.

For `O=C(Cn1ccnc1[N+](=O)[O-])c1ccc(F)cc1`, the TGI (TK-10 renal) was over 100 µM, the TGI (UACC-62 melanoma) was over 100 µM and the TGI (LOX IMVI melanoma) was over 100 µM. It also gave a TGI (SK-OV-3 ovarian) of over 100 µM, a TGI (M14 melanoma) of over 100 µM and a TGI (SF-295 CNS) of over 100 µM. For the same compound, the TGI (NCI-H460 lung) was over 100 µM.

For `CCCCCCCCCCCCCP(=O)(O)OCC`, the TGI (TK-10 renal) was over 100 µM, the TGI (UACC-62 melanoma) was over 100 µM and the TGI (HCC-2998 colon) was over 100 µM. For the same compound, the TGI (LOX IMVI melanoma) was over 100 µM, the TGI (M14 melanoma) was over 100 µM and the TGI (SF-295 CNS) was over 100 µM. It also gave a TGI (NCI-H460 lung) of over 100 µM.

`CCc1cccc(C(C)C)c1N1C(=O)C(=O)C(c2nc3ccccc3s2)C(=O)C1=O` gave a TGI (TK-10 renal) of over 50 µM, a TGI (UACC-62 melanoma) of over 50 µM and a TGI (HCC-2998 colon) of over 50 µM. The TGI (LOX IMVI melanoma) was over 50 µM, the TGI (SK-OV-3 ovarian) was over 50 µM and the TGI (M14 melanoma) was over 50 µM. The TGI (SF-295 CNS) was over 50 µM and the TGI (NCI-H460 lung) was over 50 µM.

Compound `Fc1ccccc1C1CC(c2ccc3ccccc3c2)=Nc2ccccc2S1` (stereo not given) has a TGI (TK-10 renal) of over 100 µM, a TGI (UACC-62 melanoma) of over 100 µM and a TGI (HCC-2998 colon) of over 100 µM. It also gave a TGI (LOX IMVI melanoma) of over 100 µM, a TGI (SK-OV-3 ovarian) of over 100 µM and a TGI (M14 melanoma) of over 100 µM. It also gave a TGI (SF-295 CNS) of over 100 µM and a TGI (NCI-H460 lung) of over 100 µM.

In the case of `CC1(C)Cc2cc(C(=O)O)c3c(c2C1=O)COCC3`, the TGI (UACC-62 melanoma) is reported as over 100 µM, the TGI (HCC-2998 colon) is reported as over 100 µM and the TGI (LOX IMVI melanoma) is reported as over 100 µM. It also gave a TGI (SK-OV-3 ovarian) of over 100 µM, a TGI (M14 melanoma) of over 100 µM and a TGI (SF-295 CNS) of over 100 µM. For the same compound, the TGI (NCI-H460 lung) was over 100 µM.

In the case of `CCCCCCCCCc1cccc(N2C(N)=NC(N)=NC2(C)C)c1`, the TGI (TK-10 renal) is reported as 1.48 µM, the TGI (UACC-62 melanoma) is reported as 4.07 µM and the TGI (SK-OV-3 ovarian) is reported as over 33.1 µM. The TGI (M14 melanoma) was 1.53 µM, the TGI (SF-295 CNS) was 74.6 µM and the TGI (MDA-MB-435) was 1.83 µM. For the same compound, the TGI (NCI-H460 lung) was over 100 µM and the TGI (NCI/ADR-RES ovarian) was 24.9 µM.
